# Measured values from patent US20230341377A1, “DISCONNECTION AGENTS” (DC Europa Limited, priority 2020, published 2023).
# Legend:
# [1] = test system: Hs578 cell line for human breast cancer, U373 cell line of human glioblastoma, and HepG2 hepatocellular carcinoma cells; experiment: SMS assay (small molecule sharing), cell dye-sharing between cancer cells, cell lines pooled; assay type: cell-based; details: various doses that are not cytotoxic, in one or more cell lines
# Description: The SMS assay was developed to assess the transfer of cell dye (for example the acetoxymethyl [AM]-based Calcein AM), between cancer cells. The SMS assay can be applied to any cell lines forming tumour networks such as tumour microtubes (TM) or tunneling nanotubes (TNT), which enable the transfer of molecules across cells. The SMS assay can be used to assess networking capabilities of any cancer cell lines including HepG2 hepatocellular carcinoma cells, Hs578T cell line for human breast cancer, and U373 cell line for human glioblastoma.
# The SMS assay is illustrated in FIG. 1. For the SMS assay, two sets of cells are stained with the cell dye of choice and a customary cell tracker dye (for example cell tracker blue) using established staining techniques (steps 1 and 2). Each set of cells are then co-incubated with the compound of interest to assess its capabilities to modulate the cells small molecule sharing characteristics (step 3). Then the two sets of cells are combined on a plate, for example at a ratio of 1:1, and cultured in the presence of the compound of interest (Step 4).
# Finally, live cells are evaluated for viability and analyzed by flow cytometry for the uptake of cell dye in the […] cells (Step 5). The comparison of cell tracker uptake against positive and negative control enables the assessment of the compound's ability to modulate the tumour networks including those formed by TM and TNTs
# The SMS assay has been applied to assess the modulation of network sharing capabilities of Protein Kinase C Modulators (PKCm) at various concentrations in the Hs578 cell line for human breast cancer, U373 cell line of human glioblastoma, and HepG2 hepatocellular carcinoma cells. PBS vehicle was used as negative control and the PKCm PHORBOL 12-MYRISTATE 13-ACETATE (PMA) at a concentration of 5 nM was used as the positive control.
# FIG. 2A and FIG. 2B show the percentage of cell tracker cells that were accepting the cell dye transfer from separately stained donor cells according to the SMS assay of Example. The percentage of acceptor cells detected is shown in comparison to vehicle (upper horizontal line) and PMA at 5-10 nM concentration (lower horizontal line). Active PKCm in the SMS assay (FIG. 2A) show a decrease in acceptor cells relative to vehicle at certain concentration. […] The upper limit of the tested concentrations was determined as the maximal non-cytotoxic dose.
# [2] = test system: patient-derived S24 glioblastoma model; experiment: Example 4: orthotopic S24 glioblastoma in mouse brain, TPPB and radiotherapy, in vivo MPLSM imaging; set-up: species or system NMRI nude mice; details: for tumour burden / tumour connectivity: TPPB 3 doses i.p. days 13, 14, 15 at 200 μg/kg
# Description: 8-10 weeks old male NMRI nude mice were used for all studies with human primary brain tumour cells. Cranial window implantation in mice was done in a modification of what has been previously described (see References), including a custom-made titanium ring for painless head fixation during imaging. 2-3 weeks after cranial window implantation, 30,000 tumour cells of the patient-derived S24 glioblastoma model were stereotactically injected into the mouse brain at a depth of 500 μm. Tumours were injected on day minus 35, i.e., 35 days before treatment start. Treatment was started on day 0.
# Control animals (top row of FIG. 3) were untreated. TPPB continuous treatment (middle row) was administered intraperitoneally once per day on days 0 to 28 at variable daily doses ranging from 10 to 700 μg/kg. TPPB 3 doses (bottom row of FIG. 3) were administered intraperitoneally once per day on days 13, 14 and 15 at 200 μg/kg.
# Tumours were irradiated with 7 Gy on three consecutive days (days 14, 15, 16, total dose 21 Gy) in regions matching in tumour cell density using a 6 MV linear accelerator with a 6 mm collimator (adjusted to the window size) at a dose rate of 3 Gy min^−1 (Faxitron MultiRad225). The used radiation schedule is in the range of the commonly prescribed 60 Gy in 2 Gy. fractions for malignant glioma patients, assuming an α/β of ˜10 in the linear quadratic model and taking into account the radiation time of 3 days.
# MPLSM imaging was done with a Zeiss 7MP microscope (Zeiss) equipped with a Coherent Chameleon Ultrall laser (Coherent). MPLSM images were acquired by the ZEISS ZEN Software.
# White to light gray areas of images in FIG. 3 depict S24 glioblastoma cells growing in the mouse brain. Black or dark gray areas depict vessels or background.
compound,measurement,setting,value
"CC(C)[C@H]1C(=O)N[C@H](CO)Cc2cc(NC(=O)/C=C/C=C/c3ccc(C(F)(F)F)cc3)ccc2N1C [TPPB, (2E,4E)-N-[(2S,5S)-1,2,3,4,5,6-Hexahydro-5-(hydroxymethyl)-1-methyl-2-(1-methylethyl)-3-oxo-1,4-benzodiazocin-8-yl]-5-[4-(trifluoromethyl)phenyl]-2,4-pentadienamide]",inhibition of cell dye-sharing in the SMS assay,[1],marked inhibition of cell dye-sharing
same,tumour burden,"[2]; RTx 7 Gy days 14, 15, 16, day 28",marked tumour regression
same,tumour connectivity,"[2]; RTx, day 28",markedly reduced
same,tumour burden,"[2]; RTx, days 35 and 42",complete remission from the tumour burden
same,tumour connectivity,"[2]; RTx, days 35 and 42",completely disconnected
same,tumour burden and connectivity versus control,"[2]; TPPB continuous i.p. once per day days 0 to 28, 10 to 700 μg/kg, RTx 7 Gy days 14, 15, 16, days 0 to 35",no effect against control
